Literature values, collected in patent US20130202650A1, “TOPICAL COMPOSITION COMPRISING A COMBINATION OF AT LEAST TWO PENETRATION ENHANCING AGENTS” (Moberg Derma AB, priority 2008, published 2013).
Counter-ions that a name gives are not always drawn.

Conditions: tBtOH-IPM (2:8) vehicle; mouse

BZ flux from the mesylate salt: 2020 µg/cm²/h
BZ flux, fold greater than from water: 100 fold
BZ flux, fold greater than the individual neat solvents: 44-540 fold
SMILES: CN1[C@@H]2CC[C@H]1C[C@@H](OC(c1ccccc1)c1ccccc1)C2 [BZ mesylate, benztropine]
